# Assay results from the kinase profiling compilation of Christmann-Franck et al. (2016).
# Legend:
# MST4 (human) = MST4 (human) (UniProt Q9P289); test: radiometric filter-binding kinase assay
# MKNK1 (human) = MKNK1 (human) (UniProt Q9BUB5); test: radiometric filter-binding kinase assay
# EEF2K (human) = EEF2K (human) (UniProt O00418); test: radiometric filter-binding kinase assay
# SYK (human) = SYK (human) (UniProt P43405); test: radiometric filter-binding kinase assay
# DGKG (human) = DGKG (human) (UniProt P49619); test: ADP detection assay-Luminescence
# DGKB (human) = DGKB (human) (UniProt Q9Y6T7); test: ADP detection assay-Luminescence
# SPHK2 (human) = SPHK2 (human) (UniProt Q9NRA0); test: ADP detection assay-Luminescence
# PIK3CD PIK3R1 (human) = PIK3CD PIK3R1 (human) (UniProt O00329+P27986); test: ADP detection assay-Luminescence
# PIK3CB PIK3R1 (human) = PIK3CB PIK3R1 (human) (UniProt P27986+P42338); test: ADP detection assay-Luminescence
# PIK3CA PIK3R1 (human) = PIK3CA PIK3R1 (human) (UniProt P27986+P42336); test: ADP detection assay-Luminescence
# PI4KA (human) = PI4KA (human) (UniProt P42356); test: ADP detection assay-Luminescence
# PIK3CG (human) = PIK3CG (human) (UniProt P48736); test: ADP detection assay-Luminescence
# PIK3C3 (human) = PIK3C3 (human) (UniProt Q8NEB9); test: ADP detection assay-Luminescence
# PIP4K2A (human) = PIP4K2A (human) (UniProt P48426); test: ADP detection assay-Luminescence
# CHKA (human) = CHKA (human) (UniProt P35790); test: ADP detection assay-Luminescence
# DGKZ (human) = DGKZ (human) (UniProt Q13574); test: ADP detection assay-Luminescence
# PI4KB (human) = PI4KB (human) (UniProt Q9UBF8); test: ADP detection assay-Luminescence
# SPHK1 (human) = SPHK1 (human) (UniProt Q9NYA1); test: ADP detection assay-Luminescence
# CHKB (human) = CHKB (human) (UniProt Q9Y259); test: ADP detection assay-Luminescence
# Chain of PI4KA (human) (P42356 whole entry, looked up): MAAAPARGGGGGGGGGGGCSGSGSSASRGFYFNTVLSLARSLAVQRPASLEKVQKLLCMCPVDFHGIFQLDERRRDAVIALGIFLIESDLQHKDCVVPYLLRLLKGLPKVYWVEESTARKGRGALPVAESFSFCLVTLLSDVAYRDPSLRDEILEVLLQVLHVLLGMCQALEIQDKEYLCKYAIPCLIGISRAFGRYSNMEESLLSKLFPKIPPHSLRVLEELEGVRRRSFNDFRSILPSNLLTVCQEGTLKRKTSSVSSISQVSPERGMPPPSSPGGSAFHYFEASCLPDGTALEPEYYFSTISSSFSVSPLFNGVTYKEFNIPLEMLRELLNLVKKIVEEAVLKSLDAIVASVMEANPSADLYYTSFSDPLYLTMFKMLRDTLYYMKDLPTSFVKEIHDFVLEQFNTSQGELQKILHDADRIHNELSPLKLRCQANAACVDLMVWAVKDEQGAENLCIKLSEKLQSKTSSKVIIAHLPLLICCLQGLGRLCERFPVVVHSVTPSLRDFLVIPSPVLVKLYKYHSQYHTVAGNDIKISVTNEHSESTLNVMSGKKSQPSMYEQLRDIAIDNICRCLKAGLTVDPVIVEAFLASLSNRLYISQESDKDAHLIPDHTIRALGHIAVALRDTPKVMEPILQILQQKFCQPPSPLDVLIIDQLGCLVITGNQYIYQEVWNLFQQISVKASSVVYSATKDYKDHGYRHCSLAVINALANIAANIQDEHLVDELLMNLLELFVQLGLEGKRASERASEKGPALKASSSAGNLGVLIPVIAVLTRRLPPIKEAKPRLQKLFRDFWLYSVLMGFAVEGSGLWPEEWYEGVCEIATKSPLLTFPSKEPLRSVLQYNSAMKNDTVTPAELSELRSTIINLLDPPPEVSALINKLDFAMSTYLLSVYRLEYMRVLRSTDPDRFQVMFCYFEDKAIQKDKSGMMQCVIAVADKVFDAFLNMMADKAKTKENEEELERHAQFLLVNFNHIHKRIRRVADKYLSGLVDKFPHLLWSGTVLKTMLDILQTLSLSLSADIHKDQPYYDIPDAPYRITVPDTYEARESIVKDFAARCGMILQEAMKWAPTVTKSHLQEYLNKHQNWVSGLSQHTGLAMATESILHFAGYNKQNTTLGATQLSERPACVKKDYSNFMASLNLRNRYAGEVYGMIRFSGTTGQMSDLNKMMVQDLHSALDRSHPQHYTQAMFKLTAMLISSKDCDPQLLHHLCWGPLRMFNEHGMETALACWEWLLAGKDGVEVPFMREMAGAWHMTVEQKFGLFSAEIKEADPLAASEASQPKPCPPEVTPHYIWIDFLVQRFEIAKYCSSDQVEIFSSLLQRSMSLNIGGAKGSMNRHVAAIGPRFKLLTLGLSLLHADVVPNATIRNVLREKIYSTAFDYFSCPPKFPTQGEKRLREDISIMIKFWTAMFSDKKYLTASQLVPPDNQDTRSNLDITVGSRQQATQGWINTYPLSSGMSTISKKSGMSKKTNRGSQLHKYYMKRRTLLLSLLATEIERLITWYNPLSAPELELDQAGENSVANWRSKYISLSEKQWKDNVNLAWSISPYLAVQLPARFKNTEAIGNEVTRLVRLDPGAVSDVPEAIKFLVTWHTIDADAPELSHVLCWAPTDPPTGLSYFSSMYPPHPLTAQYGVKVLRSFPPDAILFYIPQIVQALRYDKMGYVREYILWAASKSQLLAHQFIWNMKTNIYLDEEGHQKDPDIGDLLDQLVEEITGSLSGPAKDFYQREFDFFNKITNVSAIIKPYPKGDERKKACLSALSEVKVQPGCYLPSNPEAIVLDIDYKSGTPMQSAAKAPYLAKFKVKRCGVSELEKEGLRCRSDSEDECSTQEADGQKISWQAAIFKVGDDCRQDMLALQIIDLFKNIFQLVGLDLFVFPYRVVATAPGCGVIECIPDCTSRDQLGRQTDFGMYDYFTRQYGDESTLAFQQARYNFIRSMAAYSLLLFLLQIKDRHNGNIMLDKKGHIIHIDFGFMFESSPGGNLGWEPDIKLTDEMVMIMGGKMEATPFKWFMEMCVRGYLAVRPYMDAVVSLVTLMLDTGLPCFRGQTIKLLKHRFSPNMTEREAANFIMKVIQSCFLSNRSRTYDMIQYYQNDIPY
# Chain of PIK3CG (human) (P48736 whole entry, looked up): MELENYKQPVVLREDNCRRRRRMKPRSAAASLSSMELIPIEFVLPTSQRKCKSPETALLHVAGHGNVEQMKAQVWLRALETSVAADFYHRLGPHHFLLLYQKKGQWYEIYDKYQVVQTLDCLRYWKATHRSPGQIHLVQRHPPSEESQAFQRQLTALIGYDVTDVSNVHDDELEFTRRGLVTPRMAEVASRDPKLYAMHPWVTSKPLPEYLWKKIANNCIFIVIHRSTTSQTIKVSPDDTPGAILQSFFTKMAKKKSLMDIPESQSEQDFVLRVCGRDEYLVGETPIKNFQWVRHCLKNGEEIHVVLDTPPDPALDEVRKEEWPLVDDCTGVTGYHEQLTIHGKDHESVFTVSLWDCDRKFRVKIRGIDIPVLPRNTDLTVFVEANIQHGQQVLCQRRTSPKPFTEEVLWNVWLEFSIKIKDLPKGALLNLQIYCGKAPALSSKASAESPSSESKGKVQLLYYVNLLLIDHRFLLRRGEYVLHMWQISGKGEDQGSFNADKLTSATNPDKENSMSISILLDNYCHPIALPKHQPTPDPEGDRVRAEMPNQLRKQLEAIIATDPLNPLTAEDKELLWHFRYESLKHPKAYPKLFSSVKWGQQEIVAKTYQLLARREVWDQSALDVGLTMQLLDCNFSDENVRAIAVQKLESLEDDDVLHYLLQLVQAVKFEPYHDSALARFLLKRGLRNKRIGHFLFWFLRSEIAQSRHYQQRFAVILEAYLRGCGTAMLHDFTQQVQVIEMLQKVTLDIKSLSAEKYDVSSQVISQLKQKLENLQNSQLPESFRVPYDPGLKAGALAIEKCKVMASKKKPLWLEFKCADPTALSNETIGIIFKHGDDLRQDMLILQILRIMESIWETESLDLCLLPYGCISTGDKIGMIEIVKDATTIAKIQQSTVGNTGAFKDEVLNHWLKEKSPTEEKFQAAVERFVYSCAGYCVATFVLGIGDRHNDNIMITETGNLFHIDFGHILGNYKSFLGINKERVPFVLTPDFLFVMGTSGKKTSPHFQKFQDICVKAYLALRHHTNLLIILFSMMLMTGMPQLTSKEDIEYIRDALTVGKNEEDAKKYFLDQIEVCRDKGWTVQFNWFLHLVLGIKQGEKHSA
# Chain of PIK3C3 (human) (Q8NEB9 whole entry, looked up): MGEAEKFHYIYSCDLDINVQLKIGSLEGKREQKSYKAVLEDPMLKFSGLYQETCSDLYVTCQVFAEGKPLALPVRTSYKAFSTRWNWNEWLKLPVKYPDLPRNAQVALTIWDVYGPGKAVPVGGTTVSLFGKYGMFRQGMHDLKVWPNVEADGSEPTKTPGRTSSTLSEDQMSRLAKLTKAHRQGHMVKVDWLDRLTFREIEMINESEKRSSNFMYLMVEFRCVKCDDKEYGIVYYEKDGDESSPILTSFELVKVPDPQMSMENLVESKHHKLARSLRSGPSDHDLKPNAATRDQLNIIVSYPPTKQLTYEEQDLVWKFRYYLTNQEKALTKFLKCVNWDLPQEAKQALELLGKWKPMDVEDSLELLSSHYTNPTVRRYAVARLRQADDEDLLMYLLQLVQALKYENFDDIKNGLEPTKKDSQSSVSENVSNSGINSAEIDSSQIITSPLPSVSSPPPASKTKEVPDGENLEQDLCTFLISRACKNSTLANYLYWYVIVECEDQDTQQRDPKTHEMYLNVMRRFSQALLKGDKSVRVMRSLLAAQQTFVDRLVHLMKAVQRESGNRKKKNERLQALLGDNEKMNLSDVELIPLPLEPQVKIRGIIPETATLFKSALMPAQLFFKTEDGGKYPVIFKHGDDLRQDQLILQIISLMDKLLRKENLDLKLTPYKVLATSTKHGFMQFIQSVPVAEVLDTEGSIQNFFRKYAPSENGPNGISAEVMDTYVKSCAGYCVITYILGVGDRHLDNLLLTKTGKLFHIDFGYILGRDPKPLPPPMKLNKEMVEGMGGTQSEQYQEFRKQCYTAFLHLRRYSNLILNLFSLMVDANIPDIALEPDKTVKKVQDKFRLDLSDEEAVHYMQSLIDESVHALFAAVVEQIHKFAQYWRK
# Chain of DGKG (human) (P49619 whole entry, looked up): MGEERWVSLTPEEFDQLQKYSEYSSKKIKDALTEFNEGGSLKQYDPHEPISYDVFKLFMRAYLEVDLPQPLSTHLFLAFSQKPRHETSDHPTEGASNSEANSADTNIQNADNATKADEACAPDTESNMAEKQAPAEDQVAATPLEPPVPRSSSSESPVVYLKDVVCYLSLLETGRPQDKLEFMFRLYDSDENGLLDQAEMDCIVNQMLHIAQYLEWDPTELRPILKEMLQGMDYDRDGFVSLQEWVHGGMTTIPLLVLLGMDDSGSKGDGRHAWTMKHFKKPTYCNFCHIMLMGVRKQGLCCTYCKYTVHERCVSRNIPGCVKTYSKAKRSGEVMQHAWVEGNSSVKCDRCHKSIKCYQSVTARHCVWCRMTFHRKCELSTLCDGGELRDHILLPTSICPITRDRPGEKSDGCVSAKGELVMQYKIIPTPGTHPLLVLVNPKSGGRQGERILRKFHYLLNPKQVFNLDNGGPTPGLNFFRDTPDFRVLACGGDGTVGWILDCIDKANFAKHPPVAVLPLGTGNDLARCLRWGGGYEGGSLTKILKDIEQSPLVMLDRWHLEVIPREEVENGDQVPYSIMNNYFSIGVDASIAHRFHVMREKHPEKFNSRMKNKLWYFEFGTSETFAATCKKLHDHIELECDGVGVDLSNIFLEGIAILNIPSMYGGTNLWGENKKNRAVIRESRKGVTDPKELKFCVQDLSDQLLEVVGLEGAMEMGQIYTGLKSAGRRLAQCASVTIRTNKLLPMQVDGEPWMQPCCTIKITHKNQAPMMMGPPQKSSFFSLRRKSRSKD
smiles,measurement,setting,value
CNc1nc(-c2ccc3c(N)n[nH]c3c2)cc(N2C[C@@H](C(=O)NC3CCCCC3)CC[C@H]2C)n1,residual activity,MST4 (human); compound 0.01 µM,112%
same,residual activity,MST4 (human); compound 0.1 µM,108%
same,residual activity,MST4 (human); compound 1.0 µM,119%
same,residual activity,MKNK1 (human); compound 0.01 µM,106%
same,residual activity,MKNK1 (human); compound 0.1 µM,108%
same,residual activity,MKNK1 (human); compound 1.0 µM,111%
same,residual activity,EEF2K (human); compound 0.01 µM,108%
same,residual activity,EEF2K (human); compound 0.1 µM,100%
same,residual activity,EEF2K (human); compound 1.0 µM,97%
same,residual activity,SYK (human); compound 0.01 µM,109%
same,residual activity,SYK (human); compound 0.1 µM,105%
same,residual activity,SYK (human); compound 1.0 µM,103%
same,residual activity,DGKG (human); compound 0.1 µM,99%
same,residual activity,DGKG (human); compound 1.0 µM,100%
same,residual activity,DGKG (human); compound 10.0 µM,101%
same,residual activity,DGKB (human); compound 0.1 µM,99%
same,residual activity,DGKB (human); compound 1.0 µM,100%
same,residual activity,DGKB (human); compound 10.0 µM,93%
same,residual activity,SPHK2 (human); compound 0.1 µM,103%
same,residual activity,SPHK2 (human); compound 1.0 µM,100%
same,residual activity,SPHK2 (human); compound 10.0 µM,91%
same,residual activity,PIK3CD PIK3R1 (human); compound 0.1 µM,119%
same,residual activity,PIK3CD PIK3R1 (human); compound 1.0 µM,104%
same,residual activity,PIK3CD PIK3R1 (human); compound 10.0 µM,73%
same,residual activity,PIK3CB PIK3R1 (human); compound 0.1 µM,102%
same,residual activity,PIK3CB PIK3R1 (human); compound 1.0 µM,108%
same,residual activity,PIK3CB PIK3R1 (human); compound 10.0 µM,97%
same,residual activity,PIK3CA PIK3R1 (human); compound 0.1 µM,106%
same,residual activity,PIK3CA PIK3R1 (human); compound 1.0 µM,105%
same,residual activity,PIK3CA PIK3R1 (human); compound 10.0 µM,104%
same,residual activity,PI4KA (human); compound 0.1 µM,100%
same,residual activity,PI4KA (human); compound 1.0 µM,94%
same,residual activity,PI4KA (human); compound 10.0 µM,103%
same,residual activity,PIK3CG (human); compound 0.1 µM,98%
same,residual activity,PIK3CG (human); compound 1.0 µM,83%
same,residual activity,PIK3CG (human); compound 10.0 µM,70%
same,residual activity,PIK3C3 (human); compound 0.1 µM,96%
same,residual activity,PIK3C3 (human); compound 1.0 µM,102%
same,residual activity,PIK3C3 (human); compound 10.0 µM,89%
same,residual activity,PIP4K2A (human); compound 0.1 µM,102%
same,residual activity,PIP4K2A (human); compound 1.0 µM,97%
same,residual activity,PIP4K2A (human); compound 10.0 µM,86%
same,residual activity,CHKA (human); compound 0.1 µM,102%
same,residual activity,CHKA (human); compound 1.0 µM,94%
same,residual activity,CHKA (human); compound 10.0 µM,101%
same,residual activity,DGKZ (human); compound 0.1 µM,110%
same,residual activity,DGKZ (human); compound 1.0 µM,86%
same,residual activity,DGKZ (human); compound 10.0 µM,101%
same,residual activity,PI4KB (human); compound 0.1 µM,99%
same,residual activity,PI4KB (human); compound 1.0 µM,89%
same,residual activity,PI4KB (human); compound 10.0 µM,97%
same,residual activity,SPHK1 (human); compound 0.1 µM,106%
same,residual activity,SPHK1 (human); compound 1.0 µM,102%
same,residual activity,SPHK1 (human); compound 10.0 µM,94%
same,residual activity,CHKB (human); compound 0.1 µM,113%
same,residual activity,CHKB (human); compound 1.0 µM,95%
same,residual activity,CHKB (human); compound 10.0 µM,87%
